Read-outs that look alike come from different tables or passages of the source.
Tests used:
[1] = molecular target: human TYK2 (JH2domain-pseudokinase) (Homo sapiens (Human), UniProt P29597); test: TYK2 JH2 Domain Binding Assay (KINOMEscan)
In short: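 The construct was human TYK2 G556–D888 fused to the NFkB DNA-binding domain and expressed in HEK293 cells; unpurified extract was incubated with compound and liganded beads for 1 hour at room temperature.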

Tyk2 kinase domain (DH1) = Tyk2 kinase domain (DH1) (Homo sapiens (Human), UniProt P29597); test: Tyk2 Radioactive Kinase Assay; assay type: biochemical; conditions: for inhibition at 10 µM: read-out: Tyk2 JH1% Inhibition @ 10 μM
In short: (§1)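 Read-out is percent inhibition from a radioactive kinase reaction, measured with compound at 10 μM.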

JAK2 kinase domain (JH1) = JAK2 kinase domain (JH1) (Homo sapiens (Human), UniProt O60674); test: JAK2 Radioactive Kinase Assay; assay type: biochemical; conditions: for inhibition at 10 µM: read-out: JAK2 JH1% Inhibition @ 10 μM
In short: as §1

JAK2 kinase domain (JH1), sequence (O60674 849-1124): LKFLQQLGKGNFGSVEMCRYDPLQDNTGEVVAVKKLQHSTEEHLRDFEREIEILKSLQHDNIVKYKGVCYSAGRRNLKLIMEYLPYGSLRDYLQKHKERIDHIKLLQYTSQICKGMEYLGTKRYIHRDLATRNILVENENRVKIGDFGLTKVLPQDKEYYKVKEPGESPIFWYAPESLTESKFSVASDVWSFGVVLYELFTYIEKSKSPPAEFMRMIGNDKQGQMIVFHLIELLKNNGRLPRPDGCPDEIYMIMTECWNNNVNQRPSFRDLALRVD
Tyk2 kinase domain (DH1), sequence (P29597 897-1176): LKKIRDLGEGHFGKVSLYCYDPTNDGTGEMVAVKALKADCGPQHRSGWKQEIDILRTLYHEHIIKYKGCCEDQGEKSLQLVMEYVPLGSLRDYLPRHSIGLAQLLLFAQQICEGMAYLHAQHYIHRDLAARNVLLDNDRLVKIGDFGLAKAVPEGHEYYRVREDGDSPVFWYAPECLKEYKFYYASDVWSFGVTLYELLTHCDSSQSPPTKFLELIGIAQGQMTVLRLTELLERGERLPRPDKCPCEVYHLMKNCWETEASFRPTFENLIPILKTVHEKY
human TYK2 (JH2domain-pseudokinase), sequence (P29597 556-888): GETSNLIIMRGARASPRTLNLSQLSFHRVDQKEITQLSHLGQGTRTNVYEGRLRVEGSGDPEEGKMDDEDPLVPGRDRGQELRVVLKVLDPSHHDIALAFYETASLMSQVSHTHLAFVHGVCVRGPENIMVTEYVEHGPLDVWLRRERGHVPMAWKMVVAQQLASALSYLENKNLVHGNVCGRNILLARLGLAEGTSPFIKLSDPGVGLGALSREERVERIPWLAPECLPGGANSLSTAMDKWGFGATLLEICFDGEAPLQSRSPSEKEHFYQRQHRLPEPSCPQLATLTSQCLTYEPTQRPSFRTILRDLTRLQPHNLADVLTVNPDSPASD

Structure (SMILES) | Kd [1] | inhibition at 10 µM (Tyk2 kinase domain (DH1); compound at 10 μM, ATP 10 μM) | inhibition at 10 µM (JAK2 kinase domain (JH1); compound at 10 μM, ATP 10 μM) | inhibition at 10 µM (Tyk2 kinase domain (DH1); 10 μM compound, 10 μM ATP) | inhibition at 10 µM (JAK2 kinase domain (JH1); 10 μM compound, 10 μM ATP) | Tyk2 JH1% Inhibition @ 10 μM (Tyk2 kinase domain (DH1); compound at 10 μM, ATP 10 μM) | JAK2 JH1% Inhibition @ 10 μM (JAK2 kinase domain (JH1); compound at 10 μM, ATP 10 μM)
CNc1cc(Nc2cccnc2OC)nc2c(C(=O)N[C@@H]3CC[C@@H]3O)cnn12 [I-430] | 0.2 to 1 nM | < 50% | < 50% | – | – | – | –
CNc1cc(-c2cn(CCN3CCOCC3)c3ncccc23)nc2c(C(=O)N[C@H]3C[C@H]3F)cnn12 [I-583] | < 0.2 nM | < 50% | < 50% | – | – | – | –
CNc1cc(Nc2cccnc2OC)nc2c(C(=O)NC(C)(C)C#N)cnn12 [I-476, N-(2-cyanopropan-2-yl)-5-((2-methoxypyridin-3-yl)amino)-7-(methylamino)-pyrazolo[1,5-a]pyrimidine-3-carboxamide] | < 0.2 nM | < 50% | < 50% | – | – | – | –
CNc1cc(Nc2cccn(-c3cc(C)on3)c2=O)nc2c(C(N)=O)cnn12 [I-46] | < 0.2 nM | < 50% | < 50% | – | – | – | –
CNc1cc(Nc2cccn(-c3cnn(C)c3)c2=O)nc2c(C(=O)NC[C@@H](C)CO)cnn12 [I-669] | < 0.2 nM | < 50% | < 50% | – | – | – | –
CNc1cc(Nc2cccn([C@@H]3C[C@H]3F)c2=O)nc2c(C(=O)NCC3(CO)CC3)cnn12 [I-1122, 5-((1-((1R,2R)-2-fluorocyclopropyl)-2-oxo-1,2-dihydropyridin-3-yl)amino)-N-((1-(hydroxymethyl)cyclopropyl)methyl)-7-(methylamino)pyrazolo[1,5-a]pyrimidine-3-carboxamide] | 0.2 to 1 nM | – | – | < 50% | < 50% | – | –
CNc1cc(Nc2cccn(-c3ccccc3F)c2=O)nc2c(C(=O)NCC(C)CO)cnn12 (stereo not drawn) [I-941] | < 0.2 nM | – | – | < 50% | < 50% | – | –
CNc1cc(Nc2cccn(-c3cnn(C)c3F)c2=O)nc2c(C(=O)NC3CC3)cnn12 [I-808] | < 0.2 nM | – | – | < 50% | < 50% | – | –
CNc1cc(Nc2cc(Cl)cn(-c3cn(C4CC4)nc3C)c2=O)nc2c(C(N)=O)cnn12 [I-178] | 0.2 to 1 nM | < 50% | < 50% | – | – | – | –
CNc1cc(Nc2cc(Cl)cn(-c3cnn(C4CC4)c3C)c2=O)nc2c(C(=O)NC3CC3)cnn12 [I-325] | 0.2 to 1 nM | < 50% | < 50% | – | – | – | –
CNc1cc(Nc2cccc(-c3cn(C)nc3F)n2)nc2c(C(=O)N[C@H]3CC[C@H]3O)cnn12 [I-948] | < 0.2 nM | – | – | < 50% | < 50% | – | –
CNc1cc(Nc2cccn(C3CCN(C)CC3)c2=O)nc2c(C(=O)N[C@@H]3CC[C@@H]3O)cnn12 [I-690] | 1 to 10 nM | – | – | – | – | A (percent inhibition at 10 μM lower than 50) | A (percent inhibition at 10 μM lower than 50)
Cc1cc(Nc2cc(N)n3ncc(C(N)=O)c3n2)cc(N2CC[C@@H](O)C2)n1 [I-56] | > 10 nM | < 50% | < 50% | – | – | – | –
CNc1cc(-c2ccn(-c3ccccc3)n2)nc2c(C(N)=O)cnn12 [I-39, 7-(methylamino)-5-(1-phenyl-1H-pyrazol-3-yl)pyrazolo[1,5-a]pyrimidine-3-carboxamide] | 1 to 10 nM | < 50% | < 50% | – | – | – | –
CNc1cc(Nc2cccn([C@@H]3CCN(C)C[C@H]3F)c2=O)nc2c(C(=O)NC3CC3)cnn12 [I-686] | 0.2 to 1 nM | < 50% | < 50% | – | – | – | –
CNc1cc(Nc2cccn(C(C)C)c2=O)nc2c(C(=O)N[C@@H]3CCC[C@@H](O)C3)cnn12 [I-1079] | 0.2 to 1 nM | – | – | < 50% | < 50% | – | –
CNc1cc(Nc2cccn(C3CCCCC3)c2=O)nc2c(C(=O)N[C@H]3CC[C@@H]3O)cnn12 [I-1003] | 0.2 to 1 nM | – | – | < 50% | < 50% | – | –
CNc1cc(Nc2cccc([C@H]3CCCCO3)n2)nc2c(C(=O)NCC3(CO)CC3)cnn12 [I-564] | < 0.2 nM | < 50% | < 50% | – | – | – | –
CNc1cc(Nc2cccn(-c3ccccn3)c2=O)nc2c(C(=O)NC[C@@H](C)CO)cnn12 [I-731] | 0.2 to 1 nM | < 50% | < 50% | – | – | – | –
CNc1cc(Nc2cccn([C@H]3CCN(C)CC3(F)F)c2=O)nc2c(C(=O)NC3CC3)cnn12 [I-823] | 0.2 to 1 nM | – | – | < 50% | < 50% | – | –
CNc1cc(Nc2cccc([C@H]3CCCOC3)n2)nc2c(C(=O)N[C@@H]3COC[C@@H]3O)cnn12 [I-634] | < 0.2 nM | < 50% | < 50% | – | – | – | –

Structure (SMILES) | Kd [1] | inhibition at 10 µM (Tyk2 kinase domain (DH1); compound at 10 μM, ATP 10 μM) | inhibition at 10 µM (JAK2 kinase domain (JH1); compound at 10 μM, ATP 10 μM) | inhibition at 10 µM (Tyk2 kinase domain (DH1); 10 μM compound, 10 μM ATP) | inhibition at 10 µM (JAK2 kinase domain (JH1); 10 μM compound, 10 μM ATP) | Tyk2 JH1% Inhibition @ 10 μM (Tyk2 kinase domain (DH1); compound at 10 μM, ATP 10 μM) | JAK2 JH1% Inhibition @ 10 μM (JAK2 kinase domain (JH1); compound at 10 μM, ATP 10 μM)
CNc1cc(Nc2cccnc2OC2CC2)nc2c(C(=O)N[C@@H]3CCC[C@H]3O)cnn12 (stereo in doubt) [I-424, 5-((2-cyclopropoxypyridin-3-yl)amino)-N-(2-hydroxycyclopentyl)-7-(methylamino)pyrazolo[1,5-a]pyrimidine-3-carboxamide] | < 0.2 nM | < 50% | < 50% | – | – | – | –
CNc1cc(-c2cn(C(C)C)c3ncccc23)nc2c(C(=O)N[C@H]3C[C@@H]3O)cnn12 (stereo in doubt) [I-733, N-((1 S,2S)-2-hydroxycyclopropyl)-5-(1-isopropyl-1H-pyrrolo[2,3-b]pyridin-3-yl)-7-(methylamino)pyrazolo[1,5-a]pyrimidine-3-carboxamide] | < 0.2 nM | < 50% | < 50% | – | – | – | –
CNc1cc(Nc2cccn(-c3cccc(F)c3)c2=O)nc2c(C(=O)NCC(C)CO)cnn12 (stereo not drawn) [I-947] | < 0.2 nM | – | – | < 50% | < 50% | – | –
CNc1cc(Nc2cccn([C@H]3CCC[C@H]3OC)c2=O)nc2c(C(=O)N[C@@H]3C[C@@H]3F)cnn12 [I-538] | 1 to 10 nM | < 50% | < 50% | – | – | – | –
CNc1cc(Nc2cccc(N3CCC4(CCCO4)CC3)n2)nc2c(C(=O)N[C@H]3CC[C@H]3O)cnn12 [I-721] | < 0.2 nM | < 50% | < 50% | – | – | – | –
CCn1cc(Cl)cc(Nc2cc(N)n3ncc(C(N)=O)c3n2)c1=O [I-49] | 0.2 to 1 nM | < 50% | < 50% | – | – | – | –
CNc1cc(Nc2cccc3ocnc23)nc2c(C(=O)N[C@H]3CC[C@H]3O)cnn12 [I-771] | 0.2 to 1 nM | < 50% | < 50% | – | – | – | –
CNc1cc(Nc2cccn(-c3nccs3)c2=O)nc2c(C(=O)NC3CC3)cnn12 [I-157] | < 0.2 nM | < 50% | < 50% | – | – | – | –
CNc1cc(Nc2cccc(N3CCCC3=O)n2)nc2c(C(=O)N[C@@H]3CC[C@@H]3O)cnn12 [I-679] | < 0.2 nM | < 50% | < 50% | – | – | – | –
CNc1cc(Nc2c(F)ccn(C(C)C)c2=O)nc2c(C(=O)NC3CC3)cnn12 [I-623] | 1 to 10 nM | < 50% | < 50% | – | – | – | –
CNc1cc(Nc2cccn([C@H]3CCCOC3)c2=O)nc2c(C(=O)N[C@@H]3CC[C@@H]3O)cnn12 [I-804] | 0.2 to 1 nM | – | – | – | – | A (percent inhibition at 10 μM lower than 50) | A (percent inhibition at 10 μM lower than 50)
[2H]C([2H])([2H])Oc1ncccc1Nc1cc(NC)n2ncc(C(=O)N[C@H]3CCC[C@H](O)C3)c2n1 [I-460] | < 0.2 nM | < 50% | < 50% | – | – | – | –
CNc1cc(Nc2cccn([C@H]3CC[C@@H](OC)CC3)c2=O)nc2c(C(=O)NC3CC3)cnn12 [I-356] | < 0.2 nM | < 50% | < 50% | – | – | – | –
CNc1cc(Nc2cccc([C@H]3CCCOC3)n2)nc2c(C(=O)N[C@@H]3CC[C@@H]3O)cnn12 [I-641] | 0.2 to 1 nM | – | – | – | – | A (percent inhibition at 10 μM lower than 50) | A (percent inhibition at 10 μM lower than 50)
CNc1cc(Nc2cccn([C@@H]3CCC[C@@H](O)C3)c2=O)nc2c(C(=O)NC3CC3)cnn12 [I-822] | < 0.2 nM | – | – | < 50% | < 50% | – | –
CNc1cc(Nc2cccn(-c3nc(C)c(C)s3)c2=O)nc2c(C(=O)NC3CC3)cnn12 [I-291] | 0.2 to 1 nM | < 50% | < 50% | – | – | – | –
CNc1cc(Nc2cccnc2OC)nc2c(C(=O)N[C@@H]3CC[C@@H](O)C3)cnn12 [I-488] | < 0.2 nM | < 50% | < 50% | – | – | – | –
CNc1cc(Nc2cccn(-c3cccc(F)c3)c2=O)nc2c(C(=O)N[C@@H]3CC[C@@H]3O)cnn12 [I-1005] | 0.2 to 1 nM | – | – | < 50% | < 50% | – | –
CNc1cc(Nc2cc(Cl)cn(C3CCCOC3)c2=O)nc2c(C(=O)N[C@H]3[C@@H]4COC[C@@H]43)cnn12 (stereo partly drawn) [I-741, N-((1R,5S,6r)-3-oxabicyclo[3.1.0]hexan-6-yl)-5-((5-chloro-2-oxo-1-(tetrahydro-2H-pyran-3-yl)-1,2-dihydropyridin-3-yl)amino)-7-(methylamino)pyrazolo[1,5-a]pyrimidine-3-carboxamide] | < 0.2 nM | < 50% | < 50% | – | – | – | –
CNc1cc(Nc2cccn([C@@H]3CCCN(C)C3)c2=O)nc2c(C(=O)NC3CC3)cnn12 [I-512] | < 0.2 nM | < 50% | < 50% | – | – | – | –
CNc1cc(Nc2cccnc2OC)nc2c(C(=O)NC3COC3)cnn12 [I-83] | > 10 nM | < 50% | < 50% | – | – | – | –

Reference: patent publication US10508120B2, “TYK2 inhibitors and uses thereof” (Nimbus Lakshmi, Inc., priority 2017, dated 2019)
